Here are results for four compounds from ChEMBL document CHEMBL5620392, “Spiroindole-containing compounds bearing phosphonate group of potential Mpro-SARS-CoV-2 inhibitory properties” (Eur J Med Chem, 2023).

A value given as a limit tells only on which side of the number the result lay.

A short description of data set [1]: Cytotoxicity against African green monkey Vero E6 cells assessed as reduction in cell viability. Type of data set: toxicity, cell-based, Vero C1008. To be noted: chlorocebus sabaeus.
A short description of data set [2]: Selectivity index, ratio of CC50 for African green monkey Vero E6 cells to IC50 for SARS-CoV-2 infected in African green monkey Vero E6 cells. It counts as toxicity. Conditions: read-out: Selectivity Index.
The test system of data set [3] is SARS-CoV-2. In words: Antiviral activity against SARS-CoV-2 infected in African green monkey Vero E6 cells assessed as inhibition of viral infection. It counts as functional, organism-based. Conditions: Severe acute respiratory syndrome coronavirus 2, Vero C1008.
Data set [4] concerns SARS-CoV-2. In words: Antiviral activity against SARS-CoV-2 infected in African green monkey Vero E6 cells. Conditions: Severe acute respiratory syndrome coronavirus 2, Vero C1008. It counts as functional, organism-based.

With `CCN(CCO)CCCC(C)Nc1ccnc2cc(Cl)ccc12` (stereo not drawn) [HYDROXYCHLOROQUINE], the CC50 in data set [1] was 356 µM. Further, the selectivity ratio in data set [2] was determined as 9.7. For the same compound, the IC50 in the data set on SARS-CoV-2 [3] is 36.9 µM.

For the compound `CCN(CC)CCCC(C)Nc1ccnc2cc(Cl)ccc12` (stereo not drawn) [CHLOROQUINE], in the data set on SARS-CoV-2 [3], the IC50 worked out at 25 µM.

For `NC(=O)c1nc(F)cnc1O`, the CC50 in data set [1] came to 5260 µM. Besides, the selectivity ratio in data set [2] came out at 3.8. Also, in the data set on SARS-CoV-2 [3], the IC50 turned out to be 1380 µM.

`COc1cccc2[nH]c(C(=O)N[C@@H](CC(C)C)C(=O)N[C@@H](C[C@@H]3CCNC3=O)C(=O)CO)cc12` [PF-00835231] registered an EC50 with SARS-CoV-2 [4] not above 0.23 µM.
